Data: US20260027118A1, “COMPOSITIONS USEFUL FOR MODULATING SPLICING” (Skyhawk Therapeutics, Inc., priority 2022, published 2026)

Key:
ATXN3-HiBiT protein = assay: ATXN3 HiBiT assay (Nano Glo HiBiT luminescence); format: cell-based; settings: Kelly-ATXN3-HiBiT cells, luminescence read out 48 h after addition of the compound
Source text: To monitor ATXN3 protein levels by luminescence, a Kelly-ATXN3-HiBiT cell line with homozygous knock-in of HiBiT at the C-terminus of the endogenous ATXN3 gene was used (knock-in of the HiBiT-tag coding sequence SEQ ID NO. 14: 5′[…]3′ into exon 11 of ATXN3 -position 1114 of ATXN3 RefSeq NM_004993.6). Manipulations of the Kelly-ATXN3-HiBiT cell line that result in downregulation of the ATXN3-HiBiT protein (through modulation of ATXN3-HiBiT pre-mRNA splicing) can be followed by monitoring the luminescence signal of the HiBiT tag using the Nano Glo HiBiT Lytic Detection System (Promega, #N3050). Kelly-ATXN3-HiBiT cells were maintained in RPMI 1640 w/Glutamax (Gibco, #61870010), 10% FBS (Sigma Aldrich, #F8687), 1% Penicillin/Streptomycin (Gibco, #15140-122) at 37° C., 5% CO2. To assess HiBiT-luminescence signal upon compound treatment, 2000 Kelly-ATXN3-HiBiT cells were seeded per well in 384 plate format. Compounds were added 24 h after seeding. ATXN3-HiBiT-luminescence signal was read out 48 h after addition of the compound using the Nano Glo HiBiT Lytic Detection System (Promega, #N3050) according to the manufacturer's instructions. To control for cell viability, an identically prepared sister plate was read out with the CellTiter-Glo® 2.0 Assay (Promega, #G9243) according to the manufacturer's instructions. Fold changes of ATXN3-HiBiT-luminescence and of CellTiter-Glo viability signals were calculated relative to a DMSO control condition.

[1] = system: ATXN3 transcripts containing exon 4; assay: ATXN3 Quantitative Splicing Assay (qPCR, E4E5 primers/probe); format: cell-based, Human; settings: SK-N-MC cells, treated with compounds for 24 h, qPCR of transcripts containing exon 4
Method: Human neuroblastoma SK-N-MC cells were plated in 384-well plates at 20,000 cells/well. Twenty-four hours after plating, cells were treated with compounds for 24 h at appropriate concentrations ranging from 30.M to 0.6 nM (0.300 DMS0). Treated cells were lysed in 15 μL of lysis buffer, and cDNA was synthesized using the Fast Advanced Cells-to-Ct kit. Two μL of each cDNA was used in qPCR reactions to confirm the exon 4 skipped transcripts of ATXN3. A second set of primers/probe E4E5 was used to detect the transcripts containing exon 4. The third set of primers/probe E8E9 was used to detect total gene level of ATXN3. The qPCR reactions were prepared in 384-well plates in 10 μL volume, using TaqMan™ Fast Advanced Master Mix with primers and probes shown in the table below. Reactions were run in a Quant Studio 6 qPCR instrument with default settings.
The primers and probes are listed below in Table 4.

total ATXN3 protein = assay: ATXN3 total protein assay (Mesoscale Discovery); format: cell-based, Human; settings: SK-N-MC cells, 48 hours incubation, MSD assay
Method: Human neuroblastoma SK-N-MC cells were seeded at 10,000 cells/well in 384 well plates one day prior to compound treatment. The concentrations of compounds were tested at appropriate doses ranging from 30 μM to 0.6 nM. After incubation for 48 hours, the cells were lysed with 25 μL of lysis buffer containing protease inhibitors, and total ATXN3 protein levels were assessed by Mesoscale Discovery (MSD) assay developed with one pair of anti-ATXN3 antibodies. The capture and detect antibodies were raised in mouse and rabbit respectively. Anti-rabbit MSD-ST antibody was used for secondary antibody. ATXN3 recombinant protein was used for standards. The readouts were captured with 35 μL of MSD read buffer and multi-array 384-well high binding plates.

Compound	EC50 (ATXN3-HiBiT protein)	IC50 ([1]; Homo sapiens)	IC50 [1]	IC50 (total ATXN3 protein)
CC#Cc1c(C[C@H](C)N)oc2c(NCc3cccs3)cc(Cl)nc12 [Compound 1, 2-[(S)-2-aminopropyl]-5-chloro-3-(1-propynyl)-7-thenylamino-1-oxa-4-azaindene]	101 to 500 nM	101 to 500 nM		101 to 500 nM
CC#Cc1c(C[C@H](C)N)oc2c(NCc3ccco3)cc(Cl)nc12 [Compound 2, 2-[(S)-2-aminopropyl]-5-chloro-7-(furfurylamino)-3-(1-propynyl)-1-oxa-4-azaindene]	101 to 500 nM	101 to 500 nM		101 to 500 nM
CC#Cc1c(C[C@@H](N)[C@H](C)F)oc2c(NCc3ccco3)cc(Cl)nc12 [Compound 5, 2-[(2R,3S)-2-amino-3-fluorobutyl]-5-chloro-7-(furfurylamino)-3-(1-propynyl)-1-oxa-4-azaindene]	0.01 to 100 nM	0.01 to 100 nM		0.01 to 100 nM
CC#Cc1c(C[C@@H](N)[C@H](C)F)oc2c(NCc3cccs3)cc(Cl)nc12 [Compound 6, 2-[(2R,3S)-2-amino-3-fluorobutyl]-5-chloro-3-(1-propynyl)-7-thenylamino-1-oxa-4-azaindene]	0.01 to 100 nM	0.01 to 100 nM		0.01 to 100 nM
C[C@H](F)[C@H](N)Cc1oc2c(NCc3cccs3)cc(Cl)nc2c1C#CC1CC1 [Compound 8, 2-[(2R,3S)-2-amino-3-fluorobutyl]-5-chloro-3-(2-cyclopropylethynyl)-7-thenylamino-1-oxa-4-azaindene]	101 to 500 nM	101 to 500 nM		501 to 5000 nM
CC#Cc1c(C[C@@H](N)[C@H](C)F)oc2c(NCc3ccccc3F)cc(Cl)nc12 [Compound 13, 2-[(2R,3S)-2-amino-3-fluorobutyl]-5-chloro-7-{[(o-fluorophenyl)methyl]amino}-3-(1-propynyl)-1-oxa-4-azaindene]	501 to 5000 nM			
CC#Cc1c(C[C@@H](N)[C@H](C)F)oc2c(NCc3c(F)cccc3F)cc(Cl)nc12 [Compound 14, 2-[(2R,3S)-2-amino-3-fluorobutyl]-5-chloro-7-{[(2,6-difluorophenyl)methyl]amino}-3-(1-propynyl)-1-oxa-4-azaindene]	10000 to 40000 nM			
CC#Cc1c(C[C@@H](N)[C@H](C)F)oc2c(NCc3cccs3)c(F)c(Cl)nc12 [Compound 37, 2-[(2R,3S)-2-amino-3-fluorobutyl]-5-chloro-6-fluoro-3-(1-propynyl)-7-thenylamino-1-oxa-4-azaindene]		501 to 5000 nM		
[2H]C([2H])([2H])OC[C@H](N)Cc1oc2c(NC([2H])([2H])c3cccs3)cc(Cl)nc2c1C#CC [Compound 40, 2-[(R)-2-amino-3-(^2H3)methoxypropyl]-5-chloro-3-(1-propynyl)-7-{[(2-thienyl)(^2H2)methyl]amino}-1-oxa-4-azaindene]	0.01 to 100 nM			
[2H]C([2H])(c1oc2c(NCc3cccs3)cc(Cl)nc2c1C#CC)[C@H](C)N [Compound 43, 2-[(S)-2-amino(1,1-^2H2)propyl]-5-chloro-3-(1-propynyl)-7-thenylamino-1-oxa-4-azaindene]	0.01 to 100 nM			
CC#Cc1c([C@H]2CCCC[C@@H]2N)oc2c(NCc3cccs3)cc(Cl)nc12 [Compound 49, 2-[(1S,2S)-2-aminocyclohexyl]-5-chloro-3-(1-propynyl)-7-thenylamino-1-oxa-4-azaindene]		0.01 to 100 nM		
CC#Cc1c([C@H]2CC(F)(F)CC[C@@H]2N)oc2c(NCc3cccs3)cc(Cl)nc12 [Compound 52, 2-[(1S,2S)-2-amino-5,5-difluorocyclohexyl]-5-chloro-3-(1-propynyl)-7-thenylamino-1-oxa-4-azaindene]		0.01 to 100 nM		

Second part, the compound after the results:

EC50 (ATXN3-HiBiT protein)	IC50 ([1]; Homo sapiens)	IC50 [1]	IC50 (total ATXN3 protein)	Compound
0.01 to 100 nM				2-[(R)-2-amino-3-methoxy(1,1- ^2H2)propyl]-5-chloro-3-(1- propynyl)-7-thenylamino-1-oxa-4- azaindene [Compound 44]
	501 to 5000 nM			CC#Cc1c(C2CCC2N)oc2c(NCc3cccs3)cc(Cl)nc12 (single isomer, unassigned) [Compound 50, 2-(2-aminocyclobutyl)-5-chloro-3-(prop-1-yn-1-yl)-N-(thiophen-2-ylmethyl)furo[3,2-b]pyridin-7-amine]
		501 to 5000 nM		CC#Cc1c(C2CCC2N)oc2c(NCc3cccs3)cc(Cl)nc12 (single isomer, unassigned) [Compound 51, 2-(2-aminocyclobutyl)-5-chloro-3-(prop-1-yn-1-yl)-N-(thiophen-2-ylmethyl)furo[3,2-b]pyridin-7-amine]
101 to 500 nM	101 to 500 nM		101 to 500 nM	CC#Cc1c(C[C@@H](N)CC(F)(F)F)oc2c(NCc3ccco3)cc(Cl)nc12 [Compound 3, 2-[(R)-2-amino-4,4,4-trifluorobutyl]-5-chloro-7-(furfurylamino)-3-(1-propynyl)-1-oxa-4-azaindene]
101 to 500 nM	101 to 500 nM		101 to 500 nM	CC#Cc1c(C[C@@H](N)CC(F)(F)F)oc2c(NCc3cccs3)cc(Cl)nc12 [Compound 4, 2-[(R)-2-amino-4,4,4-trifluorobutyl]-5-chloro-3-(1-propynyl)-7-thenylamino-1-oxa-4-azaindene]
101 to 500 nM	101 to 500 nM		101 to 500 nM	C[C@H](F)[C@H](N)Cc1oc2c(NCc3ccco3)cc(Cl)nc2c1C#CC1CC1 [Compound 7, 2-[(2R,3S)-2-amino-3-fluorobutyl]-5-chloro-3-(2-cyclopropylethynyl)-7-(furfurylamino)-1-oxa-4-azaindene]
0.01 to 100 nM				CC#Cc1c(C[C@@H](N)CCOC(F)F)oc2c(NCc3cccs3)cc(Cl)nc12 [Compound 31, 2-[(S)-2-amino-4-difluoromethoxybutyl]-5-chloro-3-(1-propynyl)-7-thenylamino-1-oxa-4-azaindene]
0.01 to 100 nM				CC#Cc1c(C[C@@H](N)CO)oc2c(NCc3cccs3)cc(Cl)nc12 [Compound 34, (R)-2-amino-3-[5-chloro-3-(1-propynyl)-7-thenylamino-1-oxa-4-aza-2-indenyl]-1-propanol]
0.01 to 100 nM				[2H]C([2H])([2H])OC[C@H](N)Cc1oc2c(NCc3cccs3)cc(Cl)nc2c1C#CC [Compound 35, 2-[2-amino-3-(^2H3)methoxypropyl]-5-chloro-3-(1-propynyl)-7-thenylamino-1-oxa-4-azaindene]
0.01 to 100 nM				[2H]C([2H])([2H])OCC[C@H](N)Cc1oc2c(NCc3cccs3)cc(Cl)nc2c1C#CC [Compound 42, 2-[(S)-2-amino-4-(^2H3)methoxybutyl]-5-chloro-3-(1-propynyl)-7-thenylamino-1-oxa-4-azaindene]
0.01 to 100 nM				[2H]C([2H])(c1oc2c(NCc3cccs3)cc(Cl)nc2c1C#CC)[C@@H](N)CF [Compound 45, 2-[(R)-2-amino-3-fluoro(1,1- ^2H2)propyl]-5-chloro-3-(1-propynyl)-7-thenylamino-1-oxa-4-azaindene]
0.01 to 100 nM				[2H]C([2H])([2H])OC([2H])([2H])[C@H](N)Cc1oc2c(NCc3cccs3)cc(Cl)nc2c1C#CC [Compound 47, 2-[(R)-2-amino-3-(^2H3)methoxy(3,3-^2H2)propyl]-5-chloro-3-(1-propynyl)-7-thenylamino-1-oxa-4-azaindene]
0.01 to 100 nM				[2H]C([2H])(OC(F)F)[C@H](N)Cc1oc2c(NCc3cccs3)cc(Cl)nc2c1C#CC [Compound 48, 2-[(R)-2-amino-3-difluoromethoxy(3,3-^2H2)propyl]-5-chloro-3-(1-propynyl)-7-thenylamino-1-oxa-4-azaindene]
